Laboratory results reported in PMC8401132 (Molecules, 2021).
Read-outs that look alike come from different tables or passages of the source.

Experiments:
293 cells = conditions: 10–50 mM for 48 h ref 56; cited from earlier work
[1] = T2DM / diabetic patients ref 57; cited from earlier work
[2] = test system: normal colon CCD 841 CoN cells; conditions: 10–50 mM for 48 h ref 56; cited from earlier work
[3] = Cu(II)/metformin complex formation constants by combined potentiometric-Vis titration; format: physicochemical; conditions: 0.1 M KCl, 25.0 °C, [L] = 4 mM, [Cu^2+] = 2 mM, potentiometry/Vis
Procedure: Protonation and complex-formation equilibrium studies were carried out under the same conditions described in previous publications. […]. Combined potentiometric–spectrophotometric measurements were performed for protonation equilibria in the 200–400 nm spectral range and in the 400–800 nm spectral range for copper (II) complexes, using 0.2 and 1 cm path lengths, respectively. Protonation and complex formation data were analyzed using the Hyperquad and HypSpec2014 program.

K562-200 cells = assay: Actin stress fiber staining, K562-200; format: cell-based, human; conditions: K562-200, 72 h
Procedure: (§1) To assess the effects on actin stress fiber organization and cell morphology, rhodamine phalloidin was used. Cells were fixed in 4% paraformaldehyde 72 h post-treatment. Cells were permeabilized for 5 min in prechilled 0.5% Triton × 100, 3 mM MgCl2, and 300 mM sucrose, followed by washing with 1× DPBS. A blocking buffer composed of 5% fetal bovine serum (FBS), 0.1% Tween 20, and 0.02% sodium azide was then added to the cells for 30 min. Rhodamine phalloidin was incubated for one hour after removing and discarding the blocking buffer. Cells were subsequently washed with 1× PBS, and DAPI was added for nucleic acid staining prior to fluorescence imaging.

[4] = parameters: method as in PMID 21168988; conditions: NMR, literature data ref 39; cited from earlier work
[5] = test system: K562-200 (K562/Adr200) cells; assay: CellTiter-Glo ATP cell viability/proliferation, K562-200; format: cell-based, human; conditions: for IC50: K562-200, ATP release, 72 h
Procedure: (§2) SW1222 were cultured in DMEM (Gibco, New York, NY, USA) media supplemented with 10% fetal bovine serum (FBS) (Gibco, New York, NY, USA) and 1% penicillin/streptomycin (Gibco, USA). Both K562 and K562/Adr200 were cultured in RPMI media (Gibco, New York, NY, USA) supplemented with 10% FBS and 1% penicillin/streptomycin. The seeding density for all the three cell lines was 1000 cells per well in 96 wells plates. […] From this experiment, the effective concentration that inhibited the growth of ≥50% of the cells was determined. […] Both metformin and copper sulfate were prepared in sterile nuclease-free water, then added to the media. The cells were maintained in culture for 72 h before any further assessments were done. […] A control sample of untreated cells was included in all experiments. […] The CellTiter-Glo® luminescent cell viability assay was used to determine levels of ATP release from each cell line after 72 h, according to manufacturer’s instructions.

[6] = patients with diabetes, observational study published in 2005 ref 13; cited from earlier work
[7] = test system: embryonic lung HEL 299 cells; conditions: 10–50 mM for 48 h ref 56; cited from earlier work
SW1222 cells [8] = assay: Actin stress fiber staining and morphology, SW1222; format: cell-based, human; conditions: SW1222, 15 mM and 50 mM metformin, 72 h
Procedure: as §1

[9] = potentiometry, cited from earlier work
SW1222 cells [10] = assay: CellTiter-Glo ATP cell viability/proliferation, SW1222; format: cell-based, human
Procedure: as §2

[11] = test system: human gastric cancer AGS cells; conditions: 20 mM for 12 h ref 56; cited from earlier work
K562 cells [12] = assay: CellTiter-Glo ATP cell viability/proliferation, K562; format: cell-based, human; conditions: for IC50: Homo sapiens, K562, 72 h, K562, ATP release; for IC50 / Normalized ATP percentage: 72 h
Procedure: as §2

K562 cells [13] = assay: Actin stress fiber staining, K562; format: cell-based, human; conditions: K562, 72 h
Procedure: as §1

[14] = potentiometry, cited from earlier work; remark: listed apart in the source

## CN(C)C(=N)N=C(N)N [metformin, 3-(diaminomethylidene)-1,1-dimethylguanidine]
293 cells
  Effect on viability: no significant effect
[1]
  Plasma concentration: ~20 µM
[2]
  Effect on viability: no significant effect
[3]
  Logβ CuL2: 22.20(7)
  Logβ CuL2H: 28.3(1)
  Logβ CuLH: 17.87(5)
K562-200 cells
  Lowest concentration showing loss of actin stress fibers: 20 µM
[4]
  Protonation constant LH: 13.8 [39]
  Protonation constant LH2: 3.1 [39]
[5]; Homo sapiens, K562, 72 h
  IC50: 63.1 µM
[5]
  IC50: 63 µM
[6]
  Decrease in cancer risk with metformin use: 23%
[7]
  Effect on viability: no significant effect
SW1222 cells [8]
  Cell shrinkage and rounding: dramatically increased
[9]; literature data ref 38
  LogK CuL: 8.59 [38]
  LogK CuL2: 6.35 [38]
[9]; literature data ref 42
  LogK CuL: 7.17 [42]
  LogK CuL2: 5.13 [42]
SW1222 cells [10]; Homo sapiens, SW1222, ATP release, 72 h
  IC50: 15.6 mM
[11]
  Effect on cell viability: significantly reduced cell viability
K562 cells [12]
  IC50: 851 µM
K562 cells [12]; as in Figure 7B legend
  IC50: ~1000 µM
K562 cells [12]; K562, 10 mM metformin
  Normalized ATP percentage: 35.2%
K562 cells [13]
  Lowest concentration showing loss of actin stress fibers: 1 mM
[14]; literature data ref 37
  Protonation constant LH: 11.02 [37]
  Protonation constant LH2: 2.79 [37]
[14]; literature data ref 38
  Protonation constant LH: 11.10 [38]
  Protonation constant LH2: 2.90 [38]

## O=S(=O)([O-])[O-].[Cu+2] [Cu(II), copper (II) sulfate]
[5]; K562-200, 400 µM Cu(II), absence of metformin
  Inhibition of cell proliferation (% of the cells): ≥ 50%
[5]; K562-200, 5 mM Cu(II), regardless of metformin concentration
  Effect on cells: almost all cells died
SW1222 cells [10]; SW1222, 400 µM Cu(II), absence of metformin
  Inhibition of cell proliferation (% of the cells): ≥ 50%
SW1222 cells [10]; SW1222, 5 mM Cu(II), regardless of metformin concentration
  Effect on cells: almost all cells died
K562 cells [12]; K562, 400 µM Cu(II), absence of metformin
  Inhibition of cell proliferation (% of the cells): ≥ 50%
K562 cells [12]; K562, 400 µM Cu(II), no metformin
  Normalized ATP percentage: 47.2%
K562 cells [12]; K562, 5 mM Cu(II), regardless of metformin concentration
  Effect on cells: almost all cells died
